Test results reported in paper PMC10577221, “A cyclic peptide-based PROTAC induces intracellular degradation of palmitoyltransferase and potently decreases PD-L1 expression in human cervical cancer cells” (Frontiers in Immunology, 2023).

Test system: C33A cells
Experiment: Colony formation assay
Assay type: cell-based, human
Settings: 14 days culture, compared to blank control
Procedure: Cells treated with drugs were separately seeded in a 6-well plate and cultured continuously for 14 days. During this period, the culture medium was changed every 2-3 days. Once visible cell colonies formed, the culture medium was removed, and the cells were fixed with 4% paraformaldehyde for 30 minutes, followed by staining with 0.1% crystal violet for 30 minutes. Finally, the colonies were counted and photographed using an optical microscope.

SMILES: N.N.[Cl][Pt][Cl] [cisplatin]
- number of C33A colonies, single agent: decreased
